Test results reported in patent US12370232B2, “Use of polyphenol containing sugar cane extracts for preventing, improving or treating a skin condition” (priority 2017, dated 2025).
Several values for one entry are separate records, joined by “and”; a condition that tells them apart may be missing. Equal values may be shown once. Read-outs that look alike come from different tables or passages of the source. Where a SMILES comes first, the peptide text is derived from it. The star is where a group is joined. MeOSuc = COC(=O)CCC(=O)*; CH2Cl = ClC*

Legend:
collagenase = assay: Collagenase inhibition assay; format: biochemical
Procedure: A collagenase inhibition assay was performed to determine the collagenase inhibition of an extract derived from sugar cane of the present disclosure. Two batches (replicate 1 and replicate 2) of an extract derived from sugar cane of the present disclosure in a concentration of from 0.17 mg/mL to 350 mg/mL were tested for the ability to inhibit collagenase.
To measure collagenase inhibition potential of an extract derived from sugar cane of the present disclosure, a test sample of an extract derived from sugar cane was mixed sequentially with type-I collagen substrate and a diluted collagenase enzyme solution. After incubation for 30 minutes at 37° C., fluorescence was measured at excitation maxima of 495 nm and emission maxima of 515 nm. The inhibition percentage was calculated as follows.
[formula] Wherein, • Abssample=absorbance of the sample test, • Absblank=absorbance of the sample blank, • Abspositive control=absorbance of the positive control, and • Absnegative control=absorbance of the negative control.
1,10-phenanthroline was used as a positive assay control. Two batches (replicate 1 and replicate 2) of 1,10-phenanthroline in a concentration of from 1.7 μM to 3500 μM were used in the positive control assay. A negative control was performed with a buffer and a collagen substrate but without collagenase enzyme.

telomerase = target: T1, telomerase (Homo sapiens, UniProt O14746); assay: Cellular telomerase activity assay (TRAP); format: cell-based; parameters: Telomerase activity Replicate 1 / Telomerase activity Replicate 2 / Telomerase activity Average: unit not given here
T1 construct: endogenous in cells
T1 sequence (O14746 whole entry): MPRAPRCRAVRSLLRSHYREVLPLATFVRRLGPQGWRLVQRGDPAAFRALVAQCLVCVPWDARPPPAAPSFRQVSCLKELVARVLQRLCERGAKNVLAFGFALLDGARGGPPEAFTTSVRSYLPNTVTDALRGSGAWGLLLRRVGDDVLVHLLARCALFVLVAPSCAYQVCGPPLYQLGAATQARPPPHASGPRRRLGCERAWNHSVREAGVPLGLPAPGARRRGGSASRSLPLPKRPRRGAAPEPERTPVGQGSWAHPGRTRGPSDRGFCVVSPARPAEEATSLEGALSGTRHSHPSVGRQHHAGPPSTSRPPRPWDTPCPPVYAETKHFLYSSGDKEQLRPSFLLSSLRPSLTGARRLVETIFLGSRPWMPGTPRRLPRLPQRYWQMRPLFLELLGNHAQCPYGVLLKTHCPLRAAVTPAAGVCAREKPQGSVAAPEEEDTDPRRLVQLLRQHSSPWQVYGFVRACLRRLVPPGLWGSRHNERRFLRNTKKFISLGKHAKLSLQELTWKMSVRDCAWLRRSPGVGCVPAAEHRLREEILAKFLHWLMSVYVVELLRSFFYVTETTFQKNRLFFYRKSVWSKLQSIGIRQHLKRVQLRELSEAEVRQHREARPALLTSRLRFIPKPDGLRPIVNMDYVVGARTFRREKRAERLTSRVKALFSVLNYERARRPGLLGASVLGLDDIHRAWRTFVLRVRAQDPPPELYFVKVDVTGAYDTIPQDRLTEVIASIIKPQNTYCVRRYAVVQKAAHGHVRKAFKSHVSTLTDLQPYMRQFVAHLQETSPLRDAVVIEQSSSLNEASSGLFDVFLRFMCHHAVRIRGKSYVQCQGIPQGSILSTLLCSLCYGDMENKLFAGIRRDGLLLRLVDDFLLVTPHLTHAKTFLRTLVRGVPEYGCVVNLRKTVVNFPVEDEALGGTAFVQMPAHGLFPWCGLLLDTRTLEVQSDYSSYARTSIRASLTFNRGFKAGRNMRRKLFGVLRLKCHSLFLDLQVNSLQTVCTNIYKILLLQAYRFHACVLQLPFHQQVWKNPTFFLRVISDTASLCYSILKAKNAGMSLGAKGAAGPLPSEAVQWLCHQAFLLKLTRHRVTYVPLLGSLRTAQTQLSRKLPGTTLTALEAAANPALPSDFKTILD
Text: A cellular telomerase activity assay determines the ability of a test material to stimulate telomerase activity in human cells, which translates to the material's anti-aging potential. […]
In the cellular telomerase activity assay, telomerase activity level of human cells treated with (and without) a test sample of an extract derived from sugar cane of the present disclosure was monitored. Specifically, a telomeric repeat amplification protocol (TRAP assay) was used for the assay. The TRAP assay was divided into three main steps: extension, amplification, and detection of telomerase products. In the extension phase, telomeric sequences were added to the telomerase substrate, a non-telomeric oligonucleotide, through the action of telomerase present in the cell extract. The products of the extension step were amplified by PCR using specific primers and finally were analyzed via electrophoresis.
Cycloastragenol, a known telomerase activator, was used as an assay control. Two batches (replicate 1 and replicate 2) of cycloastragenol in a concentration from 0.06 μM to 3 μM were used in the control assay.

elastase = target: T2, elastase (Homo sapiens, UniProt P08246); assay: Elastase inhibition assay; format: biochemical
T2 sequence (P08246 30-247): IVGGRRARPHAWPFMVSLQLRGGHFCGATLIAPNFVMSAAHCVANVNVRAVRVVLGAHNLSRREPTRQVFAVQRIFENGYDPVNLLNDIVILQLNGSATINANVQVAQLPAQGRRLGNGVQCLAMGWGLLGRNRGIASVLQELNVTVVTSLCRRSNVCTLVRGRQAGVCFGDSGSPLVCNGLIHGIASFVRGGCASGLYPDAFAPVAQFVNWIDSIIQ
Procedure: An elastase inhibition assay was performed to determine the elastase inhibition potential of an extract derived from sugar cane of the present disclosure. […] To measure elastase inhibitory potential of an extract derived from sugar cane of the present disclosure, a test sample of an extract derived from sugar cane was mixed and incubated with N-methoxysuccinyl-[…]-chloromethyl ketone in tris-HCl buffer for 15 min. Then elastase was added to the mixture and incubated for 15 min. […] [formula] Wherein, • Abssample+elastase=absorbance of test sample after incubation with elastase, • Abssample-elastase=absorbance of test sample before incubation with elastase, • Absblank+elastase=absorbance of blank after incubation with elastase, and • Absblank-elastase=absorbance of blank before incubation with elastase. N-methoxysuccinyl-[…]-chloromethyl ketone, a human leukocyte elastase (HLE) inhibitor, was used as an assay control.

[1] = tested on: melanin production in human skin cells; assay: Cellular melanin pigmentation inhibition assay; format: cell-based; details: for EC50 / inhibition at 10 µM / inhibition at 0.31 µM / inhibition at 0.63 µM / inhibition at 1.25 µM / inhibition at 2.5 µM / inhibition at 5 µM: Homo sapiens
Procedure: A melanin production inhibition assay was performed to determine the potential of an extract derived from sugar cane of the present disclosure to inhibit melanin production.
To measure melanin pigmentation inhibition potential of an extract derived from sugar cane of the present disclosure, a test sample of an extract derived from sugar cane, in combination with theophylline, was added to a pre-incubated human skin cell culture. After incubating for 72 hours, the cells were washed with phosphate-buffered saline (PBS), lysed in 1 M NaOH, and boiled for 5 minutes to solubilize the melanin. The inhibition rates of the lysates were measured at 490 nm and expressed as a percentage relative to the value of the untreated control.
Chloroquine, a known melanin production inhibitor, was used as an assay control. Two batches (replicate 1 and replicate 2) of chloroquine in a concentration from 0.31 μM to 10 μM were used in the control assay.

[2] = read-out: Inhibition (%) Average
[3] = read-out: Inhibition (%) Relicate 1
[4] = read-out: Inhibition (%) Replicate 2
[5] = read-out: Melanin inhibition (%) Average
[6] = read-out: Melanin inhibition (%) Replicate 1
[7] = read-out: Melanin inhibition (%) Replicate 2

Compound: c1cnc2c(c1)ccc1cccnc12 [1,10-phenanthroline]
- Concentration inducing the maximum inhibition (collagenase) (collagenase): 3.50 mM
- Inhibition (%) Average (collagenase; 1.71 uM): −29.05%
- Inhibition (%) Relicate 1 (collagenase; 1.71 uM): −29.63%
- Inhibition (%) Replicate 2 (collagenase; 1.71 uM): −28.47%
- Inhibition (%) Average (collagenase; 3.42 uM): −25.76%
- Inhibition (%) Relicate 1 (collagenase; 3.42 uM): −27.08%
- Inhibition (%) Replicate 2 (collagenase; 3.42 uM): −24.45%
- Inhibition (%) Average (collagenase; 6.84 uM): −21.65%
- Inhibition (%) Relicate 1 (collagenase; 6.84 uM): −22.85%
- Inhibition (%) Replicate 2 (collagenase; 6.84 uM): −20.46%
- Inhibition (%) Average (collagenase; 13.67 uM): −6.70%
- Inhibition (%) Relicate 1 (collagenase; 13.67 uM): −7.40%
- Inhibition (%) Replicate 2 (collagenase; 13.67 uM): −6.00%
- Inhibition (%) Average (collagenase; 27.34 uM): 24.95%
- Inhibition (%) Relicate 1 (collagenase; 27.34 uM): 25.64%
- Inhibition (%) Replicate 2 (collagenase; 27.34 uM): 24.25%
- Inhibition (%) Average (collagenase; 54.69 uM): 58.50%
- Inhibition (%) Relicate 1 (collagenase; 54.69 uM): 57.26%
- Inhibition (%) Replicate 2 (collagenase; 54.69 uM): 59.74%
- Inhibition (%) Average (collagenase; 109.38 uM): 71.66%
- Inhibition (%) Relicate 1 (collagenase; 109.38 uM): 71.77%
- Inhibition (%) Replicate 2 (collagenase; 109.38 uM): 71.54%
- Inhibition (%) Average (collagenase; 218.75 uM): 75.46%
- Inhibition (%) Relicate 1 (collagenase; 218.75 uM): 75.14%
- Inhibition (%) Replicate 2 (collagenase; 218.75 uM): 75.78%
- Inhibition (%) Average (collagenase; 437.50 uM): 77.01%
- Inhibition (%) Relicate 1 (collagenase; 437.50 uM): 76.63%
- Inhibition (%) Replicate 2 (collagenase; 437.50 uM): 77.39%
- Inhibition (%) Average (collagenase; 875.00 uM): 77.37%
- Inhibition (%) Relicate 1 (collagenase; 875.00 uM): 77.01%
- Inhibition (%) Replicate 2 (collagenase; 875.00 uM): 77.72%
- Inhibition (%) Average (collagenase; 1750.00 uM): 77.27%
- Inhibition (%) Relicate 1 (collagenase; 1750.00 uM): 76.83%
- Inhibition (%) Replicate 2 (collagenase; 1750.00 uM): 77.71%
- Inhibition (%) Average (collagenase; 3500.00 uM): 78.99%
- Inhibition (%) Relicate 1 (collagenase; 3500.00 uM): 79.75%
- Inhibition (%) Replicate 2 (collagenase; 3500.00 uM): 78.24%
- Maximum inhibition achieved (collagenase) (collagenase; at 3.50 mM): 78.99%
- EC50 (collagenase; effective concentration at 50% of maximal inhibition): 26.9 µM
- EC50 (collagenase inhibition) (collagenase; same value in mass units): (4.84 μg/mL)

Compound: CC(C)(O)[C@@H]1CC[C@](C)([C@H]2[C@@H](O)C[C@@]3(C)[C@@H]4C[C@H](O)[C@H]5C(C)(C)[C@@H](O)CC[C@@]56C[C@@]46CC[C@]23C)O1 [Cycloastragenol]
- Telomerase activity Average (telomerase; 0.06 μM): 1387.33
- Telomerase activity Replicate 1 (telomerase; 0.06 μM): 925.83
- Telomerase activity Replicate 2 (telomerase; 0.06 μM): 1848.83
- Telomerase activity Average (telomerase; 0.13 μM): 1916.83
- Telomerase activity Replicate 1 (telomerase; 0.13 μM): 2080.83
- Telomerase activity Replicate 2 (telomerase; 0.13 μM): 1752.83
- Telomerase activity Average (telomerase; 0.25 μM): 5523.83
- Telomerase activity Replicate 1 (telomerase; 0.25 μM): 5415.83
- Telomerase activity Replicate 2 (telomerase; 0.25 μM): 5631.83
- Telomerase activity Average (telomerase; 0.50 μM): 7501.33
- Telomerase activity Replicate 1 (telomerase; 0.50 μM): 7834.83
- Telomerase activity Replicate 2 (telomerase; 0.50 μM): 7167.83
- Telomerase activity Average (telomerase; 1.00 μM): 15556.33
- Telomerase activity Replicate 1 (telomerase; 1.00 μM): 15590.83
- Telomerase activity Replicate 2 (telomerase; 1.00 μM): 15521.83
- Telomerase activity Average (telomerase; 3.00 μM): 21909.33
- Telomerase activity Replicate 1 (telomerase; 3.00 μM): 20995.83
- Telomerase activity Replicate 2 (telomerase; 3.00 μM): 22822.83
- EC50 (telomerase; half-maximal telomerase activation, human cells): 0.79 µM
- EC50 (telomerase activation) (telomerase; same value in mass units): (0.39 μg/mL

Compound: COC(=O)CCC(=O)NC(C)C(=O)NC(C)C(=O)N1CCCC1C(=O)NC(C(=O)CCl)C(C)C (stereo not drawn) [N-methoxysuccinyl-Ala-Ala-Pro-Val-chloromethyl ketone] (MeOSuc-AAPV-CH2Cl; configuration not given here)
- Concentration inducing the maximum inhibition (elastase) (elastase): 250 µM
- inhibition at 250 µM (elastase; Conc. 250.00 uM, read-out: Inhibition (%) Average): 87.7%
- inhibition at 250 µM (elastase; Conc. 250.00 uM, read-out: Inhibition (%) Relicate 1): 87.6%
- inhibition at 250 µM (elastase; Conc. 250.00 uM, read-out: Inhibition (%) Replicate 2): 87.8%
- inhibition at 0.12 µM (elastase; [2]): 10.3%
- inhibition at 0.24 µM (elastase; [2]): 18.2%
- inhibition at 0.49 µM (elastase; [2]): 30.3%
- inhibition at 0.98 µM (elastase; [2]): 45.7%
- inhibition at 1.95 µM (elastase; [2]): 59.2%
- inhibition at 3.91 µM (elastase; [2]): 68.7%
- inhibition at 7.81 µM (elastase; [2]): 76.3%
- inhibition at 15.63 µM (elastase; [2]): 81%
- inhibition at 31.25 µM (elastase; [2]): 84.4%
- inhibition at 62.5 µM (elastase; [2]): 86.1%
- inhibition at 125 µM (elastase; [2]): 87.2%
- inhibition at 0.12 µM (elastase; [3]): 10.1%
- inhibition at 0.24 µM (elastase; [3]): 18.3%
- inhibition at 0.49 µM (elastase; [3]): 29.9%
- inhibition at 0.98 µM (elastase; [3]): 45.3%
- inhibition at 1.95 µM (elastase; [3]): 58.8%
- inhibition at 3.91 µM (elastase; [3]): 68.5%
- inhibition at 7.81 µM (elastase; [3]): 76.2%
- inhibition at 15.63 µM (elastase; [3]): 81.1%
- inhibition at 31.25 µM (elastase; [3]): 84.3%
- inhibition at 62.5 µM (elastase; [3]): 86%
- inhibition at 125 µM (elastase; [3]): 87.1%
- inhibition at 0.12 µM (elastase; [4]): 10.5%
- inhibition at 0.24 µM (elastase; [4]): 18.2%
- inhibition at 0.49 µM (elastase; [4]): 30.6%
- inhibition at 0.98 µM (elastase; [4]): 46.1%
- inhibition at 1.95 µM (elastase; [4]): 59.6%
- inhibition at 3.91 µM (elastase; [4]): 69%
- inhibition at 7.81 µM (elastase; [4]): 76.3%
- inhibition at 15.63 µM (elastase; [4]): 80.8%
- inhibition at 31.25 µM (elastase; [4]): 84.5%
- inhibition at 62.5 µM (elastase; [4]): 86.2%
- inhibition at 125 µM (elastase; [4]): 87.3%
- inhibition at 250 µM (elastase; read-out: Maximum inhibition achieved (elastase)): 87.7%

Compound: CCN(CC)CCCC(C)Nc1ccnc2cc(Cl)ccc12 (stereo not drawn) [chloroquine, Chloroquine]
- Concentration inducing the maximum inhibition [1]: 10 µM
- EC50 [1]: 0.74 µg/mL and 1.43 µM
- EC50 ([1]; 72 h, read-out: EC50 (melanin production inhibition)): 1.43 µM
- inhibition at 10 µM ([1]; read-out: Maximum inhibition achieved): 88.1%
- inhibition at 0.31 µM [1, 5]: 0.92%
- inhibition at 0.63 µM [1, 5]: 16.1%
- inhibition at 1.25 µM [1, 5]: 34.3%
- inhibition at 2.5 µM [1, 5]: 76.1%
- inhibition at 5 µM [1, 5]: 83.1%
- inhibition at 10 µM [1, 5]: 88.1%
- inhibition at 0.31 µM [1, 6]: 1.77%
- inhibition at 0.63 µM [1, 6]: 15.5%
- inhibition at 1.25 µM [1, 6]: 36.5%
- inhibition at 2.5 µM [1, 6]: 76.6%
- inhibition at 5 µM [1, 6]: 79.8%
- inhibition at 10 µM [1, 6]: 85.7%
- inhibition at 0.31 µM [1, 7]: 0.06%
- inhibition at 0.63 µM [1, 7]: 16.7%
- inhibition at 1.25 µM [1, 7]: 32.1%
- inhibition at 2.5 µM [1, 7]: 75.6%
- inhibition at 5 µM [1, 7]: 86.4%
- inhibition at 10 µM [1, 7]: 90.5%
